Results published in patent US20190022101A1, “Treating Cochlear Synaptopathy” (Massachusetts Eye and Ear Infirmary, priority 2016, published 2019).
“Also recorded” adds a separate entry of the source.

What was measured:
[1] = system: isolated SGNs and denervated organ of Corti; assay: Afferent synaptogenesis in co-culture of isolated SGNs and denervated organ of Corti; format: cell-based, mouse; conditions: P4/5 CBA/CaJ co-culture 6 days, amitriptyline 0.5 uM, vs untreated controls
Description: FIGS. 4A-B show amitriptyline induced cochlear afferent synaptogenesis. Isolated SGNs and denervated organ of Corti were extracted from P4/5 CBA/CaJ cochlea, the co-cultured for 6 days (see Brugeaud et al. (2014) Dev Neurobiol. April; 74(4):457-66 and Tong et al. (2013) J Assoc Res Otolaryngol. 14(3):321-9 for detailed methods). In some co-cultured explants, amitriptyline (AT; 0.5 uM) was added (4A, 4B). After culture, explants were fixed and immunostained with antibodies against neurofilament (green), CtBP2 (blue) and PSD-95 (red). Confocal images were taken in the IHC region. Newly generated afferent synapses were identified by juxtaposed CtBP2/PSD-95 puncta (yellow arrows).
The afferent innervation of hair cells is removed by physical ablation. At postnatal day four to six (P4-P6), the cochlea is dissected and transferred to Petri dishes. The inner and outer hair cells and surrounding supporting cells of the organ of Corti are separated from the SGN at the greater epithelial ridge with a surgical micro-blade, to obtain an intact sensory epithelium devoid of neurons. […] Formation of new synapses and growth of the fibers to contact hair cells is assessed by immunohistochemistry. […]

cochlear function = assay: Cochlear function (ABR Wave 1, DPOAE) in vivo after synaptopathic noise exposure; parameters: species or system CBA/CaJ mice; conditions: vs saline-treated controls; for ABR Wave 1 amplitudes (neural response amplitudes): 52 wk / one year post noise
Description: (§1) Animals: Experiments were carried out in CBA/CaJ mice. CBA/CaJ is a useful reference for studies of both noise-induced and age-related hearing loss and to cochlear injury. […] J Assoc Res Otolaryngol. 2014 October; 15(5):721-38). With respect to aging, after normalizing for cochlear place and relative lifespan, the pace of age-related threshold elevation and SGN loss in CBA/CaJ looks remarkably like that seen in human data (Sergeyenko et al. (2013)). Thus, the strain is particularly appropriate to provide the optimization of bioassays and treatments for application to the human.
(§2) Noise Exposure: Noise exposure stimuli were generated by a waveform generator (Tucker-Davis WG1), bandpass filtered with >60 dB/octave slope (Frequency Devices), amplified (Crown D-75) and delivered (JBL compression driver) through an exponential horn extending into a small, reverberant exposure chamber. Exposures were delivered to awake animals held within small cells of a subdivided cage, one animal/cell, suspended directly below the horn of the sound-delivery loudspeaker. Noise calibration to target SPL was performed immediately before each exposure session. Sound pressure levels varied by <1 dB across all cells (Kujawa et al. (2006); Kujawa et al. (2009)).
Cochlear Function: Detailed techniques have been described in previous publications (Kujawa et al. (2006); Kujawa et al. (2009); Sergeyenko et al. (2013)). […]
Effects of noise on the cochlea and its interaction with age were assessed physiologically using outer hair cell-based distortion product otoacoustic emissions (DPOAEs) and neural-based auditory brainstem responses (ABRs, specifically, wave 1). Response thresholds and suprathreshold response growth functions were recorded in ketamine/xylazine-anesthetized mice. DPOAEs were measured in response to f1 and f2 primaries (f2/f1=1.2, f2=ABR test frequencies; L2=L1−10 dB). […] ABRs were recorded with 5 ms tone-pips (0.5 msec rise/fall, alternating polarity) for the same range of frequencies. Wave 1 thresholds and wave peak ratios were determined by custom offline analysis routines.

[2] = system: IHC synapses and spiral ganglion cells; assay: Cochlear synapse and ganglion cell counts in vivo after synaptopathic noise exposure; parameters: species or system CBA/CaJ mice; conditions: for synapses / cochlear synaptic counts: one year (52 wk) after synaptopathic noise exposure
Description: as §1, §2
Cochlear Tissue Processing and Analysis: Techniques for cochlear fixation, dissecting and immunostaining are described in prior publications, as are techniques for quantification of pre- and post-synaptic structures in highpower confocal z-stacks (Kujawa et al. (2009); Sergeyenko et al. (2013)). Briefly, deeply anesthetized mice were intracardially perfused, both cochleae were extracted, and the round and oval windows opened to allow intra-labyrinthine perfusion of the same fixative. One cochlea was processed for immunostained cochlear whole mounts and the other for plastic embedding. We triple stained for pre-synaptic ribbons (CtBP2), post-synaptic glutamate receptors (GluA2) and/or cochlear nerve terminals (Na+K+ATPase); myosin VIIA aided hair cell visualization. […] High-power, confocal image stacks were obtained at evenly spaced locations along the cochlear spiral, including regions of lesion focus. Given the stereotyped sectioning angle, these locations correspond roughly to the 6, 12, 22, 32, 45 and 64 kHz regions. At each locus, high-NA (1.3) objectives were used to obtain a complete confocal z-stack through the synaptic zones of all IHCs and OHCs. In each field, hair cells were counted under DIC optics, and expressed pre- and post-synaptic elements on a per hair cell basis. For afferent innervation, synaptic ribbons were counted in IHC areas, and percentages of ribbons with closely apposing glutamate receptor patches or terminals assessed, aided by the use of Amira software to enable a true 3-D analysis of the volumes of immunostained structures, and custom software to isolate the voxel space around each structure of interest.
For quantification of spiral ganglion cells, cochleae were additionally postfixed, decalcified and osmicated and embedded in EPON in a stereotyped orientation. Plastic-embedded, osmium-stained sections (10 μm) were cut in a roughly horizontal plane parallel to the modiolus. In each case, ganglion cell counts were made in the section precisely in the middle of each half turn, where the cutting angle is perpendicular to the spiral of Rosenthal's canal, at regions corresponding to the synapse counts. In each selected section, the area of Rosenthal's canal is traced, the number of ganglion cells within was counted, including only those cells with a visible nucleus and nucleolus, and the cell density is computed (cells/10,000 μm^2). All morphological analyses were performed by an individual having no knowledge of animal age or treatment, with subsets double counted by a second individual as a check for consistency. […]

Spiral ganglion neurons = assay: Spiral ganglion neurite growth in cultured explants; format: cell-based, mouse; conditions: P4 CBA/CaJ SGN explants, two days culture, neurofilament stain; imipramine 1 uM or 5 uM, BDNF 50 ng/ml; vs control
Description: Spiral ganglion neurons were isolated from P4 CBA/CaJ mouse cochlea and cultured with DMEM/F12 supplemented with N2 and B27 in a 37° C. incubator with 5% CO2 (control conditions)(FIG. 3A). For drug treatment, BDNF (50 ng/ml) (FIG. 3C) or imipramine (1 uM or 5 uM)(FIG. 3B or FIG. 3D) was added. Two days after culture, explants were immunostained with a neurofilament antibody.

Molecule: CN(C)CCC=C1c2ccccc2CCc2ccccc21 [amitriptyline]
- newly generated afferent synapses (juxtaposed CtBP2/PSD-95 puncta), synapse counts [1]: synaptogenesis; also recorded: new afferent synapses are generated
- newly generated afferent synapses (juxtaposed CtBP2/PSD-95 puncta), synapse counts ([1]; listed as AT): greater in AT-treated than in untreated controls
- ABR Wave 1 amplitudes (neural response amplitudes) (cochlear function): neural response amplitudes were larger
- ABR Wave 1 amplitudes (neural response amplitudes) (cochlear function; listed as AT): larger in AT-treated ears
- DPOAE amplitudes (cochlear function; 52 wk post noise): not DPOAE amplitudes (5C) were larger
- period of post-drug efficacy ([2]; initial results, compared to short-lived benefit of exogenously-applied neurotrophins): long period of post-drug efficacy
- synapses / cochlear synaptic counts ([2]; vs saline-treated controls): cochlear synaptic and ganglion cell counts were greater
- synapses / cochlear synaptic counts ([2]; vs saline-treated controls, listed as AT): persisting to at least one year after synaptopathic exposure
- ganglion cell counts ([2]; one year post excitotoxic noise, vs saline-treated controls): ganglion cell counts were greater
- synapses ([2]; short post-exposure times, vs saline treated controls): more synapses than saline treated controls
- effects with a single dose of drug ([2]; single dose, in vivo (FIG. 6)): could be seen even with a single dose of drug

Molecule: CN(C)CCCN1c2ccccc2CCc2ccccc21 [imipramine]
- spiral ganglion neurite growth (Spiral ganglion neurons): promoted spiral ganglion neurite growth in a dose-dependent manner; also recorded: dose-responsive dendritic sprouting

B1: brain derived neurotrophic factor (protein, UniProt P23560 19-247, looked up)
Neurotrophic factor BDNF …: APMKEANIRGQGGLAYPGVRTHGTLESVNGPKAGSRGLTSLADTFEHVIEELLDEDQKVRPNEENNKDADLYTSRVMLSSQVPLEPPLLFLLEEYKNYLDAANMSMRVRRHSDPARRGELSVCDSISEWVTAADKKTAVDMSGGTVTVLEKVPVSKGQLKQYFYETKCNPMGYTKEGCRGIDKRHWNSQCRTTQSYVRALTMDSKKRIGWRFIRIDTSCVCTLTIKRGR
- spiral ganglion neurite growth (Spiral ganglion neurons): promoted neurite outgrowth
